Test results from patent publication US20050142160A1, “ACTIVE ATTRACTANT COMPOSITION FOR INSECTS” (priority 2003, published 2005).

How the values were obtained:
[1] = test system: houseflies (musca domestica); assay: Test-room trap choice experiment, attractants compared with the standard (% of total flies caught); type: in vivo; conditions: for % Catch: Table 3, TMA/Z-9 and the combination; for attractiveness to flies (in words): attractant judged by itself or against a named alternative; for effect on the attractancy of the standard TMA/Z-9 when combined (in words): in combination with trimethylamine and Z-9-tricosene
Protocol: The trimethylamine (TMA) solution was prepared freshly for each experiment by dissolving a known amount of trimethylamine in a solution of sodium bicarbonate in water, to make 6 milliliters total volume. […] Additional attractants were placed in a third jar lid, or otherwise dispersed separately in the lower compartment of the test traps, for comparison against the standard. A testing room approximately 10 feet by 15 feet was furnished with folding tables on which to place the traps. In such a room was placed a total of six traps, two each of the control, the new attractant, and a combination of control+new attractant. Flies were raised from fly pupae, purchased from Beneficial […], California in a separate room under controlled conditions. For each experiment, after setting up the test traps, around 200 flies were introduced into the room for an 18-24 hour period, and observations were made periodically. At the end of each experiment, flies were counted in each trap, and the remaining flies not trapped were counted in order to account for all flies. In most cases, the remaining flies not caught had expired and were found on the floor of the testing suite. The data are reported for each trap as the percentage of the total flies caught, ignoring the flies not caught. It was observed that a percentage of the initially released flies were always weaker than the main population, and would quickly move toward the floor. Thus, only healthy, active flies were caught, since they were still foraging and seeking mating partners. The experiments were repeated daily, randomly rotating the relative positions of traps in the room with respect to their contents, such that positional effects in the room would be averaged out over many repetitions of the experiment. The results of each experiment, one per day, over one to two weeks, were totaled, and the total catch per attractant type were reported as percentage of catch (% catch).

flies = assay: Comparison of muscalure against other fly attractants; type: in vivo; conditions: compared against other fly attractants; no method given

Compound: CC(=O)O [Acetic Acid, Acetic acid]
- % Catch ([1]; choice between acetic acid): 7%
- attractiveness to flies (in words) [1]: weak attractant
- effect on the attractancy of the standard TMA/Z-9 when combined (in words) [1]: no effect on the attractancy of TMA/Z-9

Compound: C=CC(O)CCCCC (stereo not drawn) [Attractant 1-octen-3-ol, 1-octen-3-ol]
- % Catch ([1]; choice between 1-octen-3-ol): 0%
- attractiveness to flies (in words) [1]: non-attractive or repellent to flies
- effect on the attractancy of the standard TMA/Z-9 when combined (in words) [1]: lowered the overall relative catch

Compound: CCO [Ethanol]
- % Catch ([1]; choice between ethanol): 7%
- attractiveness to flies (in words) [1]: weak attractant
- effect on the attractancy of the standard TMA/Z-9 when combined (in words) [1]: no statistically significant effect on the attractancy of the standard

Compound: CCCC(=O)O [butyric acid]
- effect on the attractancy of the standard TMA/Z-9 when combined (in words) [1]: increases the attractiveness of the attractant combination

Compound: CCCCCCCC/C=C\CCCCCCCCCCCCC [muscalure, Z-9-tricosene]
- attractiveness to flies (in words) (flies): weak fly attractant

Compound: Z-9-epoxytricosene [Attractant Z-9-Epoxy]
- attractiveness to flies (in words) [1]: no more attractive than Z-9-tricosene
